≈ marks a conversion by molar mass, not a printed value. Like-named read-outs stand apart in the source and are kept apart here.
Assays:
Staphylococcus isolates = assay: Broth microdilution susceptibility (MIC) testing of Staphylococcus isolates cultured from skin swabs; type: cell-based; settings: for resistance of S. aureus isolates: S. aureus isolates from skin swabs, OL or DB phases; for MIC: read-out: maximum MIC concentration observed; for changes in MIC90 values: return to baseline by end of study
Bacteroides = assay: Susceptibility (MIC) testing of stool culture isolates: Bacteroides; type: cell-based
S. aureus = assay: Skin swab culture for S. aureus in IBS-D subjects; type: in vivo, human; settings: OL or DB phases
Experimental: For the skin swab study, skin swab collection was performed for a subset of subjects (approximately 10% of the study population) at each of the following visits: Visits 3 and 4 (baseline and after two weeks of open-label rifaximin 550 mg TID [Treatment 2], respectively), Visits 6 and 7 (prior to and immediately after two weeks of double-blind retreatment [Treatment 3] with rifaximin 550 mg TID or placebo), and Visit 11 (End of Study). For each subject in this study, skin swabs were collected from the peri-rectum, nares, palms of hands, and forearms, and swabs were shipped immediately to the microbiology laboratory at ambient temperature in media-containing tubes. Skin swab cultures were conducted to isolate all Staphylococcus species.
Upon receipt at the microbiology laboratory, each skin swab was plated onto tryptic soy agar containing 5% sheep's blood and Columbia-colistin nalidixic acid agar with 5% sheep's blood to select for Gram-positive colonies. […] The inoculated plates were incubated at 35° C. in a 5-7% CO2 incubator, with plates examined at 24 and 48 h for bacterial growth.

stool microbiota = assay: 16S rRNA gene sequencing of stool microbiota in IBS-D subjects (richness, diversity, evenness, family abundance); type: in vivo, human; settings: for Shannon diversity: DB rifaximin group
Experimental: Stool aliquots from the selected subjects were shipped frozen for genomic sequencing. The samples were thawed at the time of testing. DNA was extracted from stool. Next-generation sequencing technology (Illumina HiSeq2500) was used to sequence the V4 region of the 16S ribosomal RNA. In order to do this, a 286 base pair (bp) region was amplified […] first using Illumina's adapter information, and then a second round of demultiplexing was performed. Approximately 4.6 billion total ([…] paired ends) sequences were generated from the selected stool samples. […] There were 172 separate families identified from subjects randomly selected. […] This list also included families of bacteria that contained known pathogens. The Shannon Diversity Index was used to determine the diversity (which takes into account not only the number of bacterial families present, but also the relative abundance of those families) of the stool microbiota at each visit.

[1] = Phase 3 repeat treatment study in IBS patients, infection rates; type: in vivo, human; settings: following single or repeat treatment courses in IBS patients
Experimental: Subjects entered a Screening/Treatment 1 Phase which included a 10 (±3) day treatment, during which the subjects received single-blind placebo TID and completed a daily symptom diary. Following the Screening/Treatment 1 Phase, eligible subjects entered the Treatment 2 Phase and received open-label rifaximin 550 mg TID for 2 weeks with a 4 week treatment-free follow-up. At the end of the Treatment 2 Phase, subjects who achieved treatment success in both IBS-related abdominal pain and stool consistency during at least 2 weeks of the 4 week follow-up period were classified as responders and entered a treatment-free Maintenance Phase 1. Non-responders in the Treatment 2 Phase were withdrawn from the study to provide an enriched population of subjects who respond to treatment with rifaximin.
The treatment-free Maintenance Phase 1 varied in time (up to 18 weeks in total) and depended upon the time of symptom recurrence. […] Subjects with recurrence entered Treatment 3 Phase, also referred to as the Double-Blind (DB) Repeat Treatment Phase. In this phase, subjects were randomized 1:1 to receive either rifaximin 550 mg TID or placebo TID for 2 weeks with a 4-week treatment-free follow-up. All subjects from the Treatment 3 Phase then entered a 6-week maintenance phase (Maintenance Phase 2). […]

[2] = tested on: Staphylococcus isolates cultured from stool; assay: Susceptibility (MIC) testing of stool culture isolates: Staphylococcus; type: cell-based; settings: end of Treatment 2 (OL) and end of Treatment 3 (DBR); returned to baseline in follow-up
C. difficile = assay: Susceptibility testing of stool culture isolates: C. difficile; type: cell-based, Clostridium difficile
[3] = skin swab, OL Week 2, following rifaximin treatment
[4] = skin swab, OL follow-up Week 7 to Week 10
[5] = skin swab, OL follow-up Week 11 to Week 14

SMILES: O=C(O)c1cn(C2CC2)c2cc(N3CCNCC3)c(F)cc2c1=O [ciprofloxacin]
- resistance of Staphylococcus isolates (Staphylococcus isolates; some skin swab isolates, did not substantially change with rifaximin treatment or time): low levels of resistance

SMILES: CO[C@H]1/C=C/O[C@@]2(C)Oc3c(C)c(O)c4c(O)c(c5c(nc6cc(C)ccn65)c4c3C2=O)NC(=O)/C(C)=C\C=C\[C@H](C)[C@H](O)[C@@H](C)[C@@H](O)[C@@H](C)[C@H](OC(C)=O)[C@@H]1C [rifaximin]
- resistance of S. aureus isolates (Staphylococcus isolates): no S. aureus isolates showed resistance
- MIC90 (Staphylococcus isolates; Staphylococcus, 24 h, skin swab isolates, DB phase Day 1 (Treatment 3), subjects randomized to placebo): 0.03 µg/mL (≈ 0.0382 µM)
- MIC90 (Staphylococcus isolates; Staphylococcus, 24 h, skin swab isolates, DB phase Day 1, subjects randomized to rifaximin): 0.03 µg/mL (≈ 0.0382 µM)
- MIC90 (Staphylococcus isolates; Staphylococcus, 24 h, skin swab staphylococcal isolates, OL phase, Treatment 2 visit (Day 1), prior to rifaximin): 0.03 µg/mL (≈ 0.0382 µM)
- MIC50 (Staphylococcus isolates; Staphylococcus, 24 h, skin swab staphylococcal isolates, OL phase, Treatment 2 visit (Day 1), prior to rifaximin, read-out: MIC50): 0.015 µg/mL (≈ 0.0191 µM)
- MIC90 (Staphylococcus isolates; Staphylococcus, 336 h, skin swab isolates, OL phase, EOT2 Visit (Week 2), after rifaximin 550 mg TID 2 weeks): 32 µg/mL (≈ 40.7 µM)
- MIC50 (Staphylococcus isolates; Staphylococcus, 336 h, skin swab isolates, OL phase, EOT2 Visit (Week 2), after rifaximin 550 mg TID 2 weeks, read-out: MIC50): 0.015 µg/mL (≈ 0.0191 µM)
- MIC90 (Staphylococcus isolates; Staphylococcus, skin swab isolates, DB rifaximin subjects, EOT3 Visit (Week 2)): 32 µg/mL (≈ 40.7 µM)
- MIC90 (Staphylococcus isolates; Staphylococcus, skin swab isolates, DB rifaximin subjects, Week 15 to Week 22): 0.5 µg/mL (≈ 0.636 µM)
- MIC90 (Staphylococcus isolates; Staphylococcus, skin swab isolates, DB rifaximin subjects, between Week 11 and Week 14): 64 µg/mL (≈ 81.4 µM)
- MIC90 (Staphylococcus isolates; Staphylococcus, skin swab isolates, DB rifaximin subjects, between Week 23 and Week 38): 0.06 µg/mL (≈ 0.0763 µM)
- MIC90 (Staphylococcus isolates; Staphylococcus, skin swab isolates, OL Last Assessment Visits, Weeks 7 to 10): 2 µg/mL (≈ 2.54 µM)
- MIC (Staphylococcus isolates; Staphylococcus, skin swab isolates, OL Last Assessment Visits, after decrease with time off rifaximin): 0.06 µg/mL (≈ 0.0763 µM)
- MIC (Staphylococcus isolates; Staphylococcus, skin swab isolates, OL Last Assessment Visits, before decrease with time off rifaximin): 64 µg/mL (≈ 81.4 µM)
- MIC90 (Staphylococcus isolates; Staphylococcus, skin swab isolates, OL Last Assessment Visits, from Week 11 onward): 0.03 µg/mL (≈ 0.0382 µM)
- MIC50 (Staphylococcus isolates; Staphylococcus, skin swab isolates, DB rifaximin subjects, DB Last Assessment Visits, read-out: MIC50): 0.015 to 0.06 µg/mL (≈ 0.0191 to 0.0763 µM)
- MIC50 (Staphylococcus isolates; skin swab isolates, DB phase Day 1 (Treatment 3), subjects randomized to placebo): 0.015 µg/mL (≈ 0.0191 µM)
- MIC50 (Staphylococcus isolates; skin swab isolates, DB phase Day 1, subjects randomized to rifaximin): 0.015 µg/mL (≈ 0.0191 µM)
- changes in MIC50 values (Staphylococcus isolates; skin swab staphylococcal isolates, overall with rifaximin treatment): no changes
- changes in MIC90 values (Staphylococcus isolates; skin swab staphylococcal isolates, overall): Transient changes
- increases in the MIC50 or MIC90 (Bacteroides): within the range of MICs reported both at baseline
- change in the number of S. aureus isolates (S. aureus): no increase
- evenness in the microbiota (stool microbiota; DB phase): unchanged
- richness of the microbiota (stool microbiota; DB phase, rifaximin treated subjects, Week 2, reversed in follow-up): decreased
- Shannon diversity (stool microbiota; after the 2 week treatment period): 1.698
- Shannon diversity (stool microbiota; baseline of DB phase): 1.786
- decrease in richness of the microbiota (stool microbiota; OL phase, baseline to Week 2): 1.235 families
- change in Shannon diversity of the stool microbiota (stool microbiota; OL phase, rifaximin 550 mg TID 2 weeks): no substantial change
- evenness of the microbiota (stool microbiota; OL phase, rifaximin treatment): not affected
- infection rates [1]: no increased infection rates
- change in MIC values [2]: Transient increases
- susceptibility (C. difficile; all C. difficile cultured from stool): highly susceptible
- resistance of C. difficile isolates (C. difficile; isolates identified in stool samples): none of these isolates demonstrated rifaximin resistance

SMILES: CO[C@H]1/C=C/O[C@@]2(C)Oc3c(C)c(O)c4c(O)c(c(/C=N/N5CCN(C)CC5)c(O)c4c3C2=O)NC(=O)/C(C)=C\C=C\[C@H](C)[C@H](O)[C@@H](C)[C@@H](O)[C@@H](C)[C@H](OC(C)=O)[C@@H]1C [rifampin]
- changes in MIC50 values (Staphylococcus isolates): no changes
- resistant isolates (Staphylococcus isolates; DB placebo treated subjects, Day 1, peri-rectum): 1 isolates
- resistant isolates (Staphylococcus isolates; DB placebo treated subjects, Week 2, peri-rectum): 2 isolates
- resistant isolates (Staphylococcus isolates; DB placebo treated subjects, treatment period, all from peri-rectum): 3 isolates
- isolates with MIC value of ≥4 μg/mL (Staphylococcus isolates; OL Last Assessment Visits between Week 7 and Week 32, […]): 16 isolates
- resistance of S. aureus isolates (Staphylococcus isolates): no S. aureus isolates showed resistance
- MIC90 (Staphylococcus isolates; Staphylococcus, 24 h, […], DB placebo subjects, all Visits from Day 1 to DB Last Assessment): ≤ 0.015 µg/mL
- MIC90 (Staphylococcus isolates; Staphylococcus, 24 h, […], OL phase, Treatment 2 visit (Day 1), prior to rifaximin): ≤ 0.015 µg/mL
- MIC50 (Staphylococcus isolates; Staphylococcus, 24 h, […], OL phase, Treatment 2 visit (Day 1), prior to rifaximin, read-out: MIC50): ≤ 0.015 µg/mL
- MIC90 (Staphylococcus isolates; Staphylococcus, 336 h, […], OL phase, EOT2 Visit (Week 2), after rifaximin 550 mg TID 2 weeks): 16 µg/mL (≈ 19.4 µM)
- MIC50 (Staphylococcus isolates; Staphylococcus, 336 h, […], OL phase, EOT2 Visit (Week 2), after rifaximin 550 mg TID 2 weeks, read-out: MIC50): ≤ 0.015 µg/mL
- MIC90 (Staphylococcus isolates; Staphylococcus, […], OL Last Assessment Visits, Weeks 7 to 10): 0.5 µg/mL (≈ 0.608 µM)
- MIC90 (Staphylococcus isolates; Staphylococcus, […], OL Last Assessment Visits, from Week 11 onward): ≤ 0.015 µg/mL
- MIC50 (Staphylococcus isolates; […], DB placebo subjects, all Visits from Day 1 to DB Last Assessment): ≤ 0.015 µg/mL
- MIC range (Staphylococcus isolates; […], OL phase, Day 1 of Treatment 2): 0.015 to 0.12 µg/mL
- changes in MIC90 values (Staphylococcus isolates; […]): Transient changes
- resistant isolates cultured from the left lower arm swabs (Staphylococcus isolates; skin swab, OL Week 2): 3 isolates
- resistant isolates cultured from the palms of the hands (Staphylococcus isolates; skin swab, OL Week 2): 4 isolates
- resistant isolates on the peri-rectum (Staphylococcus isolates; skin swab, OL Week 2): 32 isolates
- isolates with a MIC value ≥4 μg/mL (resistant) (Staphylococcus isolates; [3]): 39 isolates
- isolates with an MIC value of <4 μg/mL (susceptible) (Staphylococcus isolates; [3]): 297 isolates
- resistant isolates (count) (Staphylococcus isolates; [4]): Seven
- resistant isolates, % of isolates (Staphylococcus isolates; [4]): 9.5%
- resistant isolates (count) (Staphylococcus isolates; [5]): 7 isolates
- resistant isolates, % of isolates (Staphylococcus isolates; [5]): 2.8%
- resistant isolates (Staphylococcus isolates; skin swab, OL follow-up Week 15 to Week 32): No rifampin resistant isolates
- change in MIC values [2]: Transient increases
